Assay results as given in patent US7135457B1, “Random peptides that bind to gastro-intestinal tract (GIT) transport receptors and related methods” (Cytogen Corporation, priority 1997, dated 2006).
Peptide text beside a SMILES is read from it. * marks the point of attachment. Dansyl = CN(C)c1cccc2c(S(=O)(=O)*)cccc12

How the values were obtained:
[1] = test system: P100 membrane fractions derived from Caco-2 cells; assay: Dansylated peptide ELISA on P100: PAX2 and HAX42 peptides relative binding
Procedure: The peptides and proteins were analyzed by a dansylated peptide ELISA method in which 96 well plates were coated overnight at 4° C. with 100 μl/well coating protein (normally 100 μg/ml P100 membrane fraction) in 0.05M carbonate buffer pH9.6. Nonspecific binding was blocked using 200 μl/well, 2% Marvel/PBS for 2 hours at 37° C. prior to incubation with dansylated peptides. The plates were washed three times with PBS/0.05% Tween 20 and after each subsequent incubation step. […] A buffer blank control was included to ensure that background binding to plastic was not due to the antibodies used in the assay system. […] The plates were then incubated with an anti-mouse λ-HRP conjugated antibody (Southern Biotech 1060-05) at a 1:10,000 dilution in blocking solution, 100 μl/well for 1 hour at room temperature. Plates were developed using 75 μl/well Bionostics TMB substrate and incubated for approximately 10 minutes. The developing reaction was stopped using Bionostics Red Stop solution (25 μl/well), and the optical density of the plates was read at 650 nm.

[2] = Drug potency, peptide loading and size of coacervated particles; type: physicochemical; conditions: formulation 1 particles (coacervation), blend
[3] = HAX42 peptides, ratio to ZElan021 (arbitrary 1.00), first 50 μg/ml column
[4] = HAX42 peptides, ratio to ZElan021 (arbitrary 1.00), second 50 μg/ml column
[5] = HAX42 peptides, ratio to ZElan021 (arbitrary 1.00)
[6] = PAX2 peptides, ratio to ZElan021 (HAX42 = 1.00), first 20 μg/ml column
[7] = PAX2 peptides, ratio to ZElan021 (HAX42 = 1.00), first 50 μg/ml column
[8] = PAX2 peptides, ratio to ZElan021 (HAX42 = 1.00), second 50 μg/ml column
[9] = PAX2 peptides, ratio to ZElan021 (HAX42 = 1.00), second 20 μg/ml column

Compound	Binding value at 50 μg/ml [1, 3]	Binding value at 50 μg/ml [1, 4]	Binding value at 20 μg/ml [1, 6]	Binding value at 50 μg/ml [1, 7]	Binding value at 50 μg/ml [1, 8]	also measured
CC(C)C[C@H](NC(=O)[C@H](CC(N)=O)NC(=O)[C@@H](N)CCCCNS(=O)(=O)c1cccc2c(N(C)C)cccc12)C(=O)N[C@@H](CCCNC(=N)N)C(=O)N[C@@H](CO)C(=O)N[C@@H](CC(=O)O)C(=O)N[C@@H](CC(N)=O)C(=O)N[C@@H](C)C(=O)N[C@@H](CCCCN)C(=O)N[C@@H](CCC(=O)O)C(=O)N1CCC[C@H]1C(=O)NCC(=O)N[C@@H](CC(=O)O)C(=O)N[C@@H](Cc1ccc(O)cc1)C(=O)N[C@@H](CC(N)=O)C(=O)N[C@@H](CS)C(=O)N[C@@H](CS)C(=O)NCC(=O)N[C@@H](CC(N)=O)C(=O)NCC(=O)N[C@@H](CC(N)=O)C(=O)N[C@@H](CO)C(=O)N[C@H](C(=O)NCC(=O)N[C@@H](CCCNC(=N)N)C(=O)N[C@@H](CCCCN)C(=O)N[C@H](C(=O)N[C@@H](Cc1ccccc1)C(=O)N[C@@H](CC(N)=O)C(=O)N[C@@H](CCCNC(=N)N)C(N)=O)C(C)C)[C@@H](C)O [ZElan071] (H-K(Dansyl)NLRSDNAKEPGDYNCCGNGNSTGRKVFNR-NH2)	0.89	0.75				
CC[C@H](C)[C@H](NC(=O)[C@H](C)NC(=O)[C@H](CO)NC(=O)[C@@H]1CCCN1C(=O)[C@H](CCCNC(=N)N)NC(=O)[C@H](CCCNC(=N)N)NC(=O)[C@H](CC(N)=O)NC(=O)[C@H](Cc1ccccc1)NC(=O)[C@@H](NC(=O)[C@H](CCCCN)NC(=O)[C@H](CCCNC(=N)N)NC(=O)CNC(=O)[C@@H](NC(=O)[C@H](CO)NC(=O)[C@H](CC(N)=O)NC(=O)CNC(=O)[C@H](CC(N)=O)NC(=O)CNC(=O)[C@H](CS)NC(=O)[C@H](CS)NC(=O)[C@H](CC(N)=O)NC(=O)[C@H](Cc1ccc(O)cc1)NC(=O)[C@H](CC(=O)O)NC(=O)CNC(=O)[C@@H]1CCCN1C(=O)[C@@H](N)CCCCNS(=O)(=O)c1cccc2c(N(C)C)cccc12)[C@@H](C)O)C(C)C)C(=O)N1CCC[C@H]1C(=O)N[C@H](C(N)=O)[C@@H](C)O [ZElan072] (H-K(Dansyl)PGDYNCCGNGNSTGRKVFNRRPSAIPT-NH2)	0.61	0.88				Binding value at 20 μg/ml [1, 5]: 0.83
CC(C)C[C@H](NC(=O)[C@H](CCCNC(=N)N)NC(=O)[C@H](CCCNC(=N)N)NC(=O)[C@H](CC(N)=O)NC(=O)[C@H](Cc1c[nH]cn1)NC(=O)[C@H](CO)NC(=O)[C@H](CO)NC(=O)[C@@H](N)CCCCNS(=O)(=O)c1cccc2c(N(C)C)cccc12)C(=O)N[C@@H](CCCNC(=N)N)C(=O)N[C@@H](C)C(=O)N[C@@H](CCCNC(=N)N)C(N)=O [ZElan081] (H-K(Dansyl)SSHNRRLRAR-NH2)			0.01	0.89	0.47	
CC(C)C[C@H](NC(=O)[C@H](CCCNC(=N)N)NC(=O)[C@H](CCCNC(=N)N)NC(=O)[C@H](CC(N)=O)NC(=O)[C@H](Cc1c[nH]cn1)NC(=O)[C@H](CO)NC(=O)[C@H](CO)NC(=O)[C@@H](N)CCCCNS(=O)(=O)c1cccc2c(N(C)C)cccc12)C(=O)N[C@@H](CCCNC(=N)N)C(=O)N[C@H](C(=O)N[C@@H](C)C(N)=O)[C@@H](C)O [ZElan082] (H-K(Dansyl)SSHNRRLRTA-NH2)			0.00	0.92	0.40	
CC(C)C[C@H](NC(=O)[C@H](CCCNC(=N)N)NC(=O)[C@H](CO)NC(=O)[C@@H](NC(=O)[C@H](CCCCN)NC(=O)[C@H](CC(N)=O)NC(=O)[C@H](CCCNC(=N)N)NC(=O)[C@@H](NC(=O)[C@H](CC(N)=O)NC(=O)[C@H](CCCNC(=N)N)NC(=O)[C@@H](N)CCCCNS(=O)(=O)c1cccc2c(N(C)C)cccc12)[C@@H](C)O)[C@@H](C)O)C(=O)N[C@@H](CO)C(=O)N[C@@H](C)C(=O)N[C@@H](CC(N)=O)C(=O)N1CCC[C@H]1C(=O)N[C@@H](Cc1c[nH]cn1)C(=O)N[C@@H](CCCNC(=N)N)C(=O)N[C@@H](CO)C(=O)N[C@@H](Cc1c[nH]cn1)C(=O)N[C@@H](CCCNC(=N)N)C(N)=O [ZElan084] (H-K(Dansyl)RNTRNKTSRLSANPHRSHR-NH2)					0.77	Binding value at 20 μg/ml [1, 9]: 0.93
H-K(Dansyl)GRNHDVVSSNTHKSYRSPRSASYPRLSNDRTDRTEPAPSS-NH2 [ZElan083]			0.43		0.88	Binding value at 20 μg/ml [1, 9]: 0.63
H-K(Dansyl)SDHALGTNLRSDNAKEPGDYNCCGNGNSTGRKVFNRRRPSAIPT-NH2 (cysteines drawn unpaired) [ZElan021]	1.00	1.00				Binding value at 20 μg/ml [1, 5]: 1.00; Binding value at 25 μg/ml ([1]; HAX42 peptides, ratio to ZElan021 (arbitrary 1.00), first 25 μg/ml column): 1.00; Binding value at 25 μg/ml ([1]; HAX42 peptides, ratio to ZElan021 (arbitrary 1.00), second 25 μg/ml column): 1.00; Binding value at 25 μg/ml ([1]; HAX42 peptides, ratio to ZElan021 (arbitrary 1.00), third 25 μg/ml column): 1.00
H-K(Dansyl)STPPSREAYSRPYSVDSDSDTNAKHSSHNRRLRTRSRPNG-NH2 [ZElan018]			−0.33	0.95		
SPCGGSWGRFMQGGLFGGRTDGCGAHRNRTSASLEPPSSDY [SNi34]						Insulin (insulin potency) ([2]; coated with the named peptide): 61.5 mg/g; Peptide (level of peptide coated onto the particles) ([2]; measured by fluorescence): 4.03 µL/mg
